Like-named read-outs stand apart in the source and are kept apart here.
Tests used:
Format in all cases: cell-based
[1] = system: sDMA methylation in Jeko-1 cells; assay: sDMA western blot, 10 kDa band to total SmD3; settings: Homo sapiens
Procedure: (§1) The measurement of the 10 kDa band was used to calculate the methylation IC50 values. […] Concentration-dependent decreases in the 10 kDa band were observed on day 4 in all cell lines tested with representative western blots shown for Z-138 and Maver-1 cell lines (FIG. 1). Levels of the 10 kDa band from the western blots were quantified by densitometry and ratios of 10 kDa band (postulated to be SmD3me2s) to total SmD3 were calculated to determine the IC50s (Table 2, n=1 for all samples).

[2] = system: sDMA methylation in Z-138 cells; assay: sDMA western blot, 10 kDa band to total SmD3; settings: Homo sapiens
Procedure: as §1

[3] = system: cellular methylation (symmetric di-methyl arginine) in Z-138 cells; assay: In Cell Western (ICW) methylation assay, SYM11 antibody; settings: Homo sapiens, 96 h, 4 days of treatment, n=1
Procedure: Percent inhibition was determined and IC50 curves were generated using triplicate wells per concentration of compound. IC50 values were calculated using GraphPad Prism using a 4-parametric fit of the normalized dose response curves with the top fixed to 100%. Z-138 suspension cells were purchased from ATCC (American Type Culture Collection, Manassas, Va.). RPMI/Glutamax medium, penicillin-streptomycin, heat inactivated fetal bovine serum, and D-PBS were purchased from Life Technologies, Grand Island, N.Y., USA. Odyssey blocking buffer, 800CW goat anti-rabbit IgG (H+L) antibody, and Licor Odyssey infrared scanner were purchased from Licor Biosciences, Lincoln, Nebr., USA. Symmetric di-methyl arginine antibody was purchased from EMD Millipore, Billerica, Mass., USA. 16% Paraformaldehyde was purchased from Electron Microscopy Sciences, Hatfield, Pa., USA. Z-138 suspension cells were maintained in growth medium (RPMI 1640 supplemented with 10% v/v heat inactivated fetal bovine serum and 100 units/mL penicillin-streptomycin) and cultured at 37° C. under 5% CO2. […] The average of the ratio values for each control type was calculated and used to determine the percent inhibition for each test well in the plate. […] Percent inhibition was determined and IC50 curves were generated using triplicate wells per concentration of compound. […]

[4] = system: cellular methylation (symmetric di-methyl arginine) in Maver-1 cells; assay: as above; settings: Homo sapiens, Maver1, 96 h, 4 days of treatment, n=1
Procedure: [Worded in the source for another cell line; this cell line is reported under the same test.] Percent inhibition was determined and IC50 curves were generated using triplicate wells per concentration of compound. IC50 values were calculated using GraphPad Prism using a 4-parametric fit of the normalized dose response curves with the top fixed to 100%. Z-138 cells were seeded in assay medium at a concentration of 50,000 cells per mL to a 384-well cell culture plate with 50 μL per well. Compound (100 nL) from 384 well source plates was added directly to 384 well cell plate. Plates were incubated at 37° C., 5% CO2 for 96 hours. After four days of incubation, 40 μL of cells from incubated plates were added to poly-d-lysine coated 384 well culture plates (BD Biosciences 356697). Plates were incubated at room temperature for 30 minutes then incubated at 37° C., 5% CO2 for 5 hours. After the incubation, 40 μL per well of 8% paraformaldehyde in PBS (16% paraformaldahyde was diluted to 8% in PBS) was added to each plate and incubated for 30 minutes. Plates were transferred to a Biotek 405 plate washer and washed 5 times with 100 μL per well of wash buffer (1×PBS with 0.1% Triton X-100 (v/v)). […] The average of the ratio values for each control type was calculated and used to determine the percent inhibition for each test well in the plate. […] Percent inhibition was determined and IC50 curves were generated using triplicate wells per concentration of compound. […]

[5] = 96 h, day 4, N = 1, read-out: sDMA Western blot IC50 10 kDa Band
[6] = Table 3, read-out: sDMA Western IC50

With `CC(=O)N1CCC(Nc2cc(C(=O)NC[C@H](O)CN3CCc4ccccc4C3)ccn2)CC1` [Formula B] the IC50 [1, 5] was 9.5 nM, the IC50 [1, 6] was 9.5 nM and the IC50 [2, 5] was 1 nM. For the same compound, the IC50 [2, 6] was 1 nM, the IC50 [3] was 0.64 nM and the IC50 [4] was 1.9 nM.
